Source: patent US20150343007A1, “EDIBLE COMPOSITION COMPRISING AN EXTRACT OF INULA RACEMOSA AND NARINGIN” (CONOPCO, INC. D/B/A UNILEVER, priority 2012, published 2015)

target: T1, human recombinant Dipeptidyl peptidase-IV (DPP-IV) enzyme (Homo sapiens, UniProt P27487); assay: Invitro DPP-4 Enzyme Assay (Gly-Pro p-NA substrate, absorbance at 405 nm); format: biochemical; details: 4 ng DPP-IV per well, 200 μl/well TRIS-HCl pH 8, 37° C., 1 hr; sample amounts (μg/well) per Table 1; Control 3 = 100% activity
T1 construct: purchased PROSPEC ISRAEL ENZ 375
T1 sequence (P27487 whole entry): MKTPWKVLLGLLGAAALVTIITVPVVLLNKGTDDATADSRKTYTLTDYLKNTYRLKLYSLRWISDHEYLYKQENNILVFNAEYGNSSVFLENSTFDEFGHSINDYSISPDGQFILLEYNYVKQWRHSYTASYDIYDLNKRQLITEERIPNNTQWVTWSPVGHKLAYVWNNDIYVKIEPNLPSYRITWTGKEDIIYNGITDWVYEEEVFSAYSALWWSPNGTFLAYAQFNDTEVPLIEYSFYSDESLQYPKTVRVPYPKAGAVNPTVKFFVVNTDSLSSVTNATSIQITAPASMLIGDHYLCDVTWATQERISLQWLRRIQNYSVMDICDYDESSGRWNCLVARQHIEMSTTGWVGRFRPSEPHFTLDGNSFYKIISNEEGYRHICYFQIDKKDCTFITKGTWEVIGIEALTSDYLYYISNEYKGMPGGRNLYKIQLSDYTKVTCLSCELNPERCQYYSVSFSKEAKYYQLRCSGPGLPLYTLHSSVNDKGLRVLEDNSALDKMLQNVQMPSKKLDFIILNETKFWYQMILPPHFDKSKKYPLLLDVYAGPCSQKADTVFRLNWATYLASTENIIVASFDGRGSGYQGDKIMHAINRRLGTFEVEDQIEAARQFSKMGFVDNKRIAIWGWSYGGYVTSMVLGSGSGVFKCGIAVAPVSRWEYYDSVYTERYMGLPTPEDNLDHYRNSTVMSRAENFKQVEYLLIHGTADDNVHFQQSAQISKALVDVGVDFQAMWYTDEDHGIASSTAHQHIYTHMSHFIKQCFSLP
Description: A 96 well plate (NEST Biotechnology Co. Ltd, Cat No 701001) was taken. In each well of 96 well plate extract of Inula racemosa (as prepared above), Naringin (SIGMA, Cat. No: N1376) and the combination of extract of Inula racemosa and naringin were put in varied concentration as per Table 1. In each well, 4 ng of human recombinant Dipeptidyl peptidase-IV (DPP-IV) enzyme (PROSPEC ISRAEL, Cat. No. ENZ 375) was also added. After that, the final volume was made up to 200 μl/well using TRIS-HCl buffer of pH-8. The TRIS-HCl buffer was prepared by adding 2.42 g of TRIS (Tris hydroxyl methyl amino methane; Supplier: Sisco Research Laboratory ltd, Cat No 2044122) base, 0.372 g of EDTA (SIGMA, Cat No E6758) and 5.644 g of NaCl in 900 mL of autoclaved milli-Q water (Millipore® India) and stirred it till it get dissolved (˜30 minutes). After that the pH of the solution was adjusted to 8.0 using HCl acid and then the volume of the solution was made up to 1000 mL with autoclaved milli-Q water.
The enzyme and combinations of extract of Inula racemosa and naringin were mixed for 1 min using microplate reader (BIO-RAD LAB INDIA, Model No. 680) and incubated in an incubator (Thermo Scientific, Model 3111; conditions: at 37° C.) for 10 minutes. After that the enzymatic reaction was initiated by adding 10 μL/well of the 19 mM of substrate Glycine-Proline para nitroanilide (Gly-Pro p-NA) (this is equivalent to GLP-1). Gly-Pro-p NA is a universally accepted and commercially available substrate for the enzyme DPP-4, due to the lack of availability of commercially available chromogenic GLP-1. We have used Gly-Pro-p NA in the assay which is equivalent to GLP-1. […]
All the above reaction mixture was again incubated for 1 hr in the same incubator under the same condition. […] After this the absorbance was measured at a wavelength of 405 nm using microplate reader (BIO-RAD LAB INDIA, Model No. 680). […]
The % activities of the DPP-4 for the other samples were calculated using the following formula:
The % inhibitions by the samples were then calculated by subtracting the activity from 100.

| % Inhibition [%] | Structure (SMILES) |
| --- | --- |
| 18.11 | C[C@@H]1OC(OC2C(O)[C@H](O)C(CO)O[C@H]2Oc2cc(O)c3c(c2)O[C@H](c2ccc(O)cc2)CC3=O)[C@H](O)C(O)C1O (single isomer, unassigned) [D, 4,5,7-Trihydroxyflavanone 7-rhamnoglucoside] |
| 18.54 | C[C@@H]1O[C@@H](O[C@H]2[C@H](Oc3cc(O)c4c(c3)O[C@H](c3ccc(O)cc3)CC4=O)O[C@H](CO)[C@@H](O)[C@@H]2O)[C@H](O)[C@H](O)[C@H]1O [B, 4,5,7-Trihydroxyflavanone 7-rhamnoglucoside] |
| 18.43 | C[C@@H]1O[C@@H](O[C@H]2[C@H](Oc3cc(O)c4c(c3)O[C@H](c3ccc(O)cc3)CC4=O)O[C@H](CO)[C@@H](O)[C@@H]2O)[C@H](O)[C@H](O)[C@H]1O [C, 4,5,7-Trihydroxyflavanone 7-rhamnoglucoside] |
